One experiment deals with P2X3 (Homo sapiens (Human), UniProt P56373). Put plainly: Calcium uptake assay (P2X antagonist assay), P2X3. It counts as cell-based. Particulars: inhibition of agonist-induced calcium influx. The text has this: (§1) Human P2X3 (Accession no. NM_002559), P2X2 (Accession no. NM_170682) and Rat P2X3 (Accession no. NM_031075) and P2X2 (Accession no. NM_053656) are cloned into a mammalian expression vector (e.g., pcDNA5/TO or pcDNA3 Invitrogen). The human P2X2/3 chimera clone is created as described by Neelands et al, and then cloned into an expression vector as above. Receptors are expressed in cells (e.g., HEK293 or 1321N1 (obtained from the ECACC)) via transient transfection using standard lipid mediated transfection, or by creation of stable transfectants for each receptor. For expression of the P2X2/3 heteromeric receptor, the P2X3 expression vector is stably transfected into a cell line already stably expressing P2X2. P2X2/3 heteromer function is isolated using pharmacological methods. Cell lines are maintained in DMEM+5% Glutamax, the appropriate level of selective antibiotic, and 10% heat inactivated FBS.
(§2) Functional activity of compounds at the P2X receptor is determined by measuring their ability to inhibit agonist-induced calcium influx. Compounds are tested for antagonist activity against the P2X2/3 chimera, the P2X3 homomer, or the P2X2/3 heteromer. At the start of each screening day, the agonist EC50 is determined. Compound % inhibition or IC50s are subsequently determined using a pre-determined agonist concentration (EC50-90 depending on cell line) as a stimulus. The agonists used are αβMeATP, ATP, or other ATP analogs. Compounds may be tested at concentrations ranging from 1 μM to 10 μM.
(§3) To test for antagonist activity, cells expressing the appropriate receptor are seeded onto 96 or 384 well plates 18-24 hours prior to assay. On the day of the assay, cells are loaded with calcium-sensitive fluorescent dye (e.g., Fluo-4 no wash reagent-Invitrogen cat#F36206, or the BD™ PBX Calcium Assay Kit—BD cat#640175) in Hank's Buffered Salt Solution (HESS) with up to 10 mM supplemental CaCl2. Plates are incubated at 37° C. and then equilibrated at room temperature. Antagonism of agonist-induced calcium influx is measured using a fluorescent imaging plate reader (e.g. FLIPR^TETRA, Molecular Devices, Sunnyvale, Calif.). The assay comprises two stages: a pre-treatment phase followed by a treatment phase. Compounds may be tested as follows: For the pre-treatment phase, 50 μL of 3× concentration of test compound in HBSS is added to cells containing 100 μL of dye loading media to achieve a final concentration of 1× test compound. For the treatment phase, at a set interval after pre-treatment (1-30 minutes), 50 μL of 1× test compound plus […] solution is added, resulting in a final concentration of 1× compound and 1× agonist. Fluorescence is measured at 0.1-3 second intervals—with an excitation wavelength of 494 nm and an emission wavelength of 515 nm. Responses are measured as (peak fluorescence after agonist addition) minus (baseline fluorescence prior to treatment). Percent inhibition is calculated as follows: […]
(§4) IC50 values are determined by analyzing dose response data in a 4 parameter logistic fit using GraphPad Prizm.

The target in the next experiment is P2X2/3 (Homo sapiens (Human), UniProt P56373+Q9UBL9). Put plainly: Calcium uptake assay (P2X antagonist assay), P2X2/3. Conditions: inhibition of agonist-induced calcium influx. It counts as cell-based.
Text: as §1, §2, §3, §4

Chain of P2X2/3 (Q9UBL9 whole entry): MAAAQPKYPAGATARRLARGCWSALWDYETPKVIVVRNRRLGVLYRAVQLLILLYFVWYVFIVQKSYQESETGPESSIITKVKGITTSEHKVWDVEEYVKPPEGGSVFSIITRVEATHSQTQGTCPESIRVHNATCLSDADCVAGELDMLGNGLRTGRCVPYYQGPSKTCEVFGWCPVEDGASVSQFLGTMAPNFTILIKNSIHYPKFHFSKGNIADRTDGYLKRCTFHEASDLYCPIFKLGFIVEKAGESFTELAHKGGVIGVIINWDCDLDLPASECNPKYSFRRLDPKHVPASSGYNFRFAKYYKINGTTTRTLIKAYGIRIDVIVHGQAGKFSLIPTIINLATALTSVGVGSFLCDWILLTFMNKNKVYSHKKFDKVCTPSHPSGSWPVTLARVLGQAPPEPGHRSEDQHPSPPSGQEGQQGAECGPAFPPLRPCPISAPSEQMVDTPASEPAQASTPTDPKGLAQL
Chain of P2X2/3 (P56373 whole entry): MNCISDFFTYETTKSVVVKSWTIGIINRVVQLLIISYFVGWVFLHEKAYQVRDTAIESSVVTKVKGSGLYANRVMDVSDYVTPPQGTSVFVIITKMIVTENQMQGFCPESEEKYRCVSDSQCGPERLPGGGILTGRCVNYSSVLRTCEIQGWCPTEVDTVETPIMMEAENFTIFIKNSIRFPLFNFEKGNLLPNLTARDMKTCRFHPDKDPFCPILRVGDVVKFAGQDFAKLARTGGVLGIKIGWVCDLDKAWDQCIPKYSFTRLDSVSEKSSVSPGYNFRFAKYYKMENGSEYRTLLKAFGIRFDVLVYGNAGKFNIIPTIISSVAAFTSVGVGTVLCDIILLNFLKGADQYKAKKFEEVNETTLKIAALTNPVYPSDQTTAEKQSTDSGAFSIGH
Chain of P2X3 (P56373 whole entry): as above

For orientation: IC50 means the concentration that inhibits the measured activity by half. With `Cc1ccc(N2CCc3ncnc(NC(C)c4ccccc4F)c3C2)nc1` (stereo not shown) [Compound 12, [1-(2-Fluoro-phenyl)-ethyl]-[6-(5-methyl-pyridin-2-yl)-5,6,7,8-tetrahydro-pyrido[4,3-d]pyrimidin-4-yl]-amine], the IC50 was 88 nM on P2X3 and 4620 nM at P2X2/3.

As to `Cc1ccc(N2CCc3ncnc(NC(C)c4cc(F)cc(F)c4)c3C2)nc1` (stereo not shown) [Compound 17, [1-(3,5-Difluoro-phenyl)-ethyl]-[6-(5-methyl-pyridin-2-yl)-5,6,7,8-tetrahydro-pyrido[4,3-d]pyrimidin-4-yl]-amine], the IC50 at P2X3 stood at 52 nM; on P2X2/3 it was 803 nM.

For the molecule `Cc1ccc(N2CCc3ncnc(NC(C)c4ccc(F)cc4F)c3C2)nc1` (stereo not shown) [Compound 18, [1-(2,4-Difluoro-phenyl)-ethyl]-[6-(5-methyl-pyridin-2-yl)-5,6,7,8-tetrahydro-pyrido[4,3-d]pyrimidin-4-yl]-amine], the figures for the IC50 on P2X3 and at P2X2/3 were 50 nM and 3070 nM, respectively.

For the molecule `COc1ccc(C(C)Nc2ncnc3c2CN(c2ccc(C)cn2)CC3)cc1F` (stereo not shown) [Compound 21, [1-(3-Fluoro-4-methoxy-phenyl)-ethyl]-[6-(5-methyl-pyridin-2-yl)-5,6,7,8-tetrahydro-pyrido[4,3-d]pyrimidin-4-yl]-amine], the results for the IC50 on P2X3 and on P2X2/3 were 80 nM and 1060 nM, respectively.

`Cc1ccc(N2CCc3ncnc(NC(CCO)c4ccccc4)c3C2)nc1` (stereo not shown) [Compound 32, 3-[6-(5-Methyl-pyridin-2-yl)-5,6,7,8-tetrahydro-pyrido[4,3-d]pyrimidin-4-ylamino]-3-phenyl-propan-1-ol]: the half-inhibitory concentration (IC50) on P2X3 amounted to 143 nM; at P2X2/3, 3880 nM.

For `Cc1ccc([C@@H](C)Nc2ncnc3c2CN(c2ccc(C)cn2)CC3)cc1` [Compound 34], the concentration for half-maximal inhibition (IC50) at P2X3 was 47 nM; on P2X2/3, 1460 nM.

Turning to `Cc1ccc(N2CCc3ncnc(NC(C)c4ccc(Cl)c(F)c4)c3C2)nc1` (stereo not shown) [Compound 39, [1-(4-Chloro-3-fluoro-phenyl)-ethyl]-[6-(5-methyl-pyridin-2-yl)-5,6,7,8-tetrahydro-pyrido[4,3-d]pyrimidin-4-yl]-amine], the values for the half-inhibitory concentration (IC50) at P2X3 and on P2X2/3 were 43 nM and 1420 nM, respectively.

`COc1cccc([C@@H](C)Nc2ncnc3c2CN(c2ccc(C)cn2)CC3)c1` [Compound 47, [(R)-1-(3-Methoxy-phenyl)-ethyl]-[6-(5-methyl-pyridin-2-yl)-5,6,7,8-tetrahydro-pyrido[4,3-d]pyrimidin-4-yl]-amine]: the IC50 is 21 nM on P2X3 and 705 nM on P2X2/3.

Turning to `Cc1ccc(N2CCc3ncnc(N[C@H](C)c4ccc(F)cc4)c3C2)nc1` [Compound 49, [(R)-1-(4-Fluoro-phenyl)-ethyl]-[6-(5-methyl-pyridin-2-yl)-5,6,7,8-tetrahydro-pyrido[4,3-d]pyrimidin-4-yl]-amine], the half-maximal inhibitory concentration (IC50) at P2X3 was 19 nM; at P2X2/3, 1220 nM.

As to `Cc1ccc(N2CCc3ncnc(N[C@H](C)c4ccc(C(F)(F)F)nc4)c3C2)nc1` [Compound 50, (R)-6-(5-Methylpyridin-2-yl)-N-(1-(6-(trifluoromethyl)pyridin-3-yl)ethyl)-5,6,7,8-tetrahydropyrido[4,3-d]pyrimidin-4-amine], the concentration for half-maximal inhibition (IC50) was 15 nM on P2X3 and 279 nM on P2X2/3.

`Cc1ccc(N2CCc3ncnc(N[C@H](CO)c4ccc(C(F)(F)F)cc4)c3C2)nc1` [Compound 55, (S)-2-(6-(5-Methylpyridin-2-yl)-5,6,7,8-tetrahydropyrido[4,3-d]pyrimidin-4-ylamino)-2-(4-(trifluoromethyl)phenyl)ethanol]: the IC50 on P2X3 was 158 nM; at P2X2/3 it was 3970 nM.

With `Cc1ccc(N2CCc3ncnc(NC(CCO)c4ccc(C(F)(F)F)nc4)c3C2)nc1` (stereo not shown) [Compound 56, 3-[6-(5-Methyl-pyridin-2-yl)-5,6,7,8-tetrahydro-pyrido[4,3-d]pyrimidin-4-ylamino]-3-(6-trifluoromethyl-pyridin-3-yl)-propan-1-ol], the figures for the IC50 at P2X3 and at P2X2/3 were 67 nM and 522 nM, respectively.

Take `COc1ccc([C@@H](CCO)Nc2ncnc3c2CN(c2ccc(Cl)cn2)CC3)cn1` [Compound 57, (R)-3-[6-(5-Chloro-pyridin-2-yl)-5,6,7,8-tetrahydro-pyrido[4,3-d]pyrimidin-4-ylamino]-3-(6-methoxy-pyridin-3-yl)-propan-1-ol]: the 50% inhibitory concentration (IC50) was 103 nM at P2X3 and 318 nM at P2X2/3.

`COc1ccc([C@@H](CCO)Nc2ncnc3c2CN(c2ccc(C)cn2)CC3)cn1` [Compound 58, (R)-3-(6-Methoxy-pyridin-3-yl)-3-[6-(5-methyl-pyridin-2-yl)-5,6,7,8-tetrahydro-pyrido[4,3-d]pyrimidin-4-ylamino]-propan-1-ol]: the IC50 was determined as 29 nM at P2X3 and 83 nM at P2X2/3.

As to `COc1ccc([C@@H](CO)Nc2ncnc3c2CN(c2ccc(Cl)cn2)CC3)cn1` [Compound 59, (S)-2-[6-(5-Chloro-pyridin-2-yl)-5,6,7,8-tetrahydro-pyrido[4,3-d]pyrimidin-4-ylamino]-2-(6-methoxy-pyridin-3-yl)-ethanol], the IC50 was determined as 90 nM at P2X3 and 276 nM on P2X2/3.

On to `COc1ccc([C@@H](CO)Nc2ncnc3c2CN(c2ccc(C)cn2)CC3)cn1` [Compound 60, (S)-2-(6-Methoxy-pyridin-3-yl)-2-[6-(5-methyl-pyridin-2-yl)-5,6,7,8-tetrahydro-pyrido[4,3-d]pyrimidin-4-ylamino]-ethanol], for which the figures for the half-maximal inhibitory concentration (IC50) at P2X3 and on P2X2/3 were 27 nM and 97 nM, respectively.

Regarding `Cc1ccc(N2CCc3ncnc(N[C@H](CCO)c4ccc(C)nc4)c3C2)nc1` [Compound 61, (R)-3-(6-Methyl-pyridin-3-yl)-3-[6-(5-methyl-pyridin-2-yl)-5,6,7,8-tetrahydro-pyrido[4,3-d]pyrimidin-4-ylamino]-propan-1-ol], the values for the half-inhibitory concentration (IC50) at P2X3 and on P2X2/3 were 28 nM and 133 nM, respectively.

In the case of `Cc1ccc(N2CCc3ncnc(NC(CO)c4cccnc4)c3C2)nc1` (stereo not shown) [Compound 62, 2-[6-(5-Methyl-pyridin-2-yl)-5,6,7,8-tetrahydro-pyrido[4,3-d]pyrimidin-4-ylamino]-2-pyridin-3-yl-ethanol], the IC50 was 272 nM on P2X3 and 3090 nM at P2X2/3.

As to `Cc1ccc(N2CCc3ncnc(N[C@H](CCO)c4ccc(C(F)(F)F)nc4)c3C2)nc1` [Compound 63, (R)-3-[6-(5-Methyl-pyridin-2-yl)-5,6,7,8-tetrahydro-pyrido[4,3-d]pyrimidin-4-ylamino]-3-(6-trifluoromethyl-pyridin-3-yl)-propan-1-ol], the IC50 was 24 nM at P2X3 and 335 nM on P2X2/3.

For `Cc1ccc(N2CCc3ncnc(N[C@H](C)c4cnc(C)nc4)c3C2)nc1` [Compound 64, [6-(5-Methyl-pyridin-2-yl)-5,6,7,8-tetrahydro-pyrido[4,3-d]pyrimidin-4-yl]-[(R)-1-(2-methyl-pyrimidin-5-yl)-ethyl]-amine], the IC50 on P2X3 was determined as 17 nM; on P2X2/3 it was 260 nM.

(Values after patent US8653091B2, “Pyrid-2yl fused heterocyclic compounds, and compositions and uses thereof” (Evotec AG, priority 2007, dated 2014).)
